According to PMC12140300, “Development of Carbon‐11 Labeled Pyrimidine Derivatives as Novel Positron Emission Tomography (PET) Agents Enabling Brain Sigma‐1 Receptor Imaging” (Advanced Science, 2025):

Test system: σ1R
Experiment: NHP PET/MR imaging with kinetic modelling, baseline and self-blocking
Type: in vivo
Conditions: for VT, One tissue compartment model [1TCM] / VT, Two tissue compartment model [2TCM] / VT, Logan graphical method [T* = 40 min]: male NHP brain
Description: Next, we conducted PET/MR imaging studies using [^11C]CNY‐01 in non‐human primates (NHP) to evaluate its safety and translational potential in large animals further. A 90‐minute dynamic PET scan with [^11C]CNY‐01 focusing on the head of a male rhesus monkey. We performed a full kinetic analysis with one‐ and two‐tissue compartment models (1TCM and 2TCM), as well as logan graphical analysis (LGA), using metabolite‐corrected arterial input function (AIF), similar to previous studies,^[ [44], [45] ^] to determine which model best suit kinetics of [^11C]CNY‐01. In most brain regions, 2TCM provided a better fit than 1TCM, as indicated by the Akaike information criterion (AIC) and model selection criterion (MSC) (Table 1). […] To test whether non‐parametric graphical approaches can be used for [^11C]CNY‐01, we performed LGA with an assumption of steady‐state time (T*) of 40 mins (Table 1). […] For voxel‐wise estimation of VT across the whole brain, we then used LGA (Figure 4A).
We also performed a self‐blocking scan for [^11C]CNY‐01, administering 0.5 mg kg^−1 of unlabeled CNY‐01 10 min before the radiotracer. The metabolism of the radiotracer in the blocking scan was similar to that of the baseline (Figure S6, Supporting Information). The radioactivity concentration was lower in arterial blood samples in the blocking scan compared to the baseline, while brain uptake was higher in the blocking scan (Figure S6, Supporting Information). […] The variation of the radiotracer plasma protein binding (fp) between baseline and blocking scan may explain our observation in a way similar to that of the previous study.^[ [46] ^] Nonetheless, due to this study's lack of fp data, the exact explanation for our observation remains to be determined further.
The PET/MR imaging protocol in non‐human primates (NHP) followed our previous work.^[ [55], [56] ^] A male rhesus macaque (8.55 kg) was anesthetized with an intramuscular injection of xylazine (0.5–2.0 mg kg^−1) and ketamine (10 mg kg^−1), followed by endotracheal intubation. V‐ and A‐lines were inserted, and anesthesia was maintained using isoflurane. [^11C] CNY‐01 was administered after antecubital catheterization, with an arterial line prepared for radiometabolite analysis. In the self‐blocking scan, the same animal (6.80 kg) was scanned with a 10‐min pre‐treatment of 0.5 mg kg^−1 unlabeled CNY‐01. PET/MR imaging data were acquired using a Siemens TIM‐Trio scanner (3T) equipped with a Siemens BrainPET insert module and an in‐house‐built 8‐channel head coil. The dynamic scan began, followed by administration of [^11C] CNY‐01 (5.1 mCi). The list mode data were reconstructed using the 3D ordinary Poisson expectation‐maximization algorithm (16 subsets and 6 iterations) with detector efficiency, decay, dead time, random coincidences, scatter, and attenuation corrections with gradually increasing time frams. All images were reconstructed into 153 slices with 256 × 256 pixels and 1.25‐mm isotropic voxel size. High‐resolution structural MRI scans were acquired by using a multi‐echo magnetization‐prepared rapid gradient echo (ME‐MPRAGE) sequence with parameters as follows: TR = 2400 ms; TE1/TE2/TE3/TE4 = 1.57/3.29/5.01/6.73 ms; inversion time = 1200 ms; flip angle = 9°; spatial resolution = 1 mm isotropic.
For macaque brain PET/MR imaging analysis, we applied the INIA19 Template^[ [57] ^] and NeuroMaps Atlas in accordance with our prior work.^[ [58] ^] In brief, reconstructed PET images were registered to the INIA19 Primate Brain Atlas^[ [57] ^] with the following processing steps^[ [59] ^]: The high‐resolution T1‐weighted MR image, co‐registered with the PET image, was first affine‐registered to the INIA19 atlas. By using the same transformation, dynamic PET data was registered to the atlas. A spatial smoothing with a 6‐mm FWHM Gaussian kernel was applied to PET images. Twenty ROIs determined in the INIA19 atlas were used to derive regional TACs. […]

[1] = NAc, 10-min pretreatment of unlabeled CNY-01 (0.5 mg kg^−1)
[2] = Occg, 10-min pretreatment of unlabeled CNY-01 (0.5 mg kg^−1)
[3] = Ofc, 10-min pretreatment of unlabeled CNY-01 (0.5 mg kg^−1)
[4] = PCC, 10-min pretreatment of unlabeled CNY-01 (0.5 mg kg^−1)
[5] = Putamen, 10-min pretreatment of unlabeled CNY-01 (0.5 mg kg^−1)
[6] = Sensory, 10-min pretreatment of unlabeled CNY-01 (0.5 mg kg^−1)
[7] = Thalamus, 10-min pretreatment of unlabeled CNY-01 (0.5 mg kg^−1)
[8] = VTA, 10-min pretreatment of unlabeled CNY-01 (0.5 mg kg^−1)
[9] = WB, 10-min pretreatment of unlabeled CNY-01 (0.5 mg kg^−1)
[10] = WM, 10-min pretreatment of unlabeled CNY-01 (0.5 mg kg^−1)

With `Cc1nc(-c2ccc(O[11CH3])cc2)nc(OCCCN2CCCCC2)c1Cl` [[^11C]CNY-01] the “VT, One tissue compartment model [1TCM]” value (Motor, baseline) was 6.97 mL cm^−3, the “VT, Two tissue compartment model [2TCM]” value (Motor, baseline) was 8.88 mL cm^−3 and the “VT, Logan graphical method [T* = 40 min]” value [1] was 33.22 ml/cm^3. For the same molecule, the “VT, Two tissue compartment model [2TCM]” value [1] was 26.92 ml/cm^3, the “VT, Logan graphical method [T* = 40 min]” value (NAc, baseline) was 13.11 mL cm^−3 and the “VT, One tissue compartment model [1TCM]” value (NAc, baseline) was 9.85 mL cm^−3. For the same molecule, the “VT, Two tissue compartment model [2TCM]” value (NAc, baseline) was 11.85 mL cm^−3, the “nonspecific binding in blockage experiments” value (NHP) was “high nonspecific binding” and the “binding to target within the imaging timeframe” value (NHP, speculated from pharmacokinetic characteristics) was “predominantly irreversible”. The “VT, Logan graphical method [T* = 40 min]” value [2] was 12.96 ml/cm^3, the “VT, Two tissue compartment model [2TCM]” value [2] was 11.84 ml/cm^3 and the “VT, Logan graphical method [T* = 40 min]” value (Occg, baseline) was 7.07 mL cm^−3. The “VT, One tissue compartment model [1TCM]” value (Occg, baseline) was 5.24 mL cm^−3, the “VT, Two tissue compartment model [2TCM]” value (Occg, baseline) was 6.28 mL cm^−3 and the “VT, Logan graphical method [T* = 40 min]” value [3] was 20.65 ml/cm^3. For the same molecule, the “VT, Two tissue compartment model [2TCM]” value [3] was 16.68 ml/cm^3, the “VT, Logan graphical method [T* = 40 min]” value (Ofc, baseline) was 9.72 mL cm^−3 and the “VT, One tissue compartment model [1TCM]” value (Ofc, baseline) was 7.31 mL cm^−3. The “VT, Two tissue compartment model [2TCM]” value (Ofc, baseline) was 9.24 mL cm^−3, the “VT, Logan graphical method [T* = 40 min]” value [4] was 27.31 ml/cm^3 and the “VT, Two tissue compartment model [2TCM]” value [4] was 23.16 ml/cm^3. The “VT, Logan graphical method [T* = 40 min]” value (PCC, baseline) was 12.38 mL cm^−3, the “VT, One tissue compartment model [1TCM]” value (PCC, baseline) was 9.29 mL cm^−3 and the “VT, Two tissue compartment model [2TCM]” value (PCC, baseline) was 14.68 mL cm^−3. For the same molecule, the “VT, Logan graphical method [T* = 40 min]” value [5] was 33.81 ml/cm^3, the “VT, Two tissue compartment model [2TCM]” value [5] was 27.99 ml/cm^3 and the “VT, Logan graphical method [T* = 40 min]” value (Putamen, baseline) was 15.02 mL cm^−3. The “VT, One tissue compartment model [1TCM]” value (Putamen, baseline) was 11.56 mL cm^−3, the “VT, Two tissue compartment model [2TCM]” value (Putamen, baseline) was 15.75 mL cm^−3 and the “VT, Logan graphical method [T* = 40 min]” value [6] was 19.24 ml/cm^3. For the same molecule, the “VT, Two tissue compartment model [2TCM]” value [6] was 16.21 ml/cm^3, the “VT, Logan graphical method [T* = 40 min]” value (Sensory, baseline) was 8.75 mL cm^−3 and the “VT, One tissue compartment model [1TCM]” value (Sensory, baseline) was 6.73 mL cm^−3. For the same molecule, the “VT, Two tissue compartment model [2TCM]” value (Sensory, baseline) was 9.33 mL cm^−3, the “VT, Logan graphical method [T* = 40 min]” value [7] was 30.88 ml/cm^3 and the “VT, Two tissue compartment model [2TCM]” value [7] was 25.02 ml/cm^3. For the same molecule, the “VT, Logan graphical method [T* = 40 min]” value (Thalamus, baseline) was 15.50 mL cm^−3, the “VT, One tissue compartment model [1TCM]” value (Thalamus, baseline) was 10.94 mL cm^−3 and the “VT, Two tissue compartment model [2TCM]” value (Thalamus, baseline) was 19.46 mL cm^−3. The “VT, Logan graphical method [T* = 40 min]” value [8] was 26.74 ml/cm^3, the “VT, Two tissue compartment model [2TCM]” value [8] was 19.47 ml/cm^3 and the “VT, Logan graphical method [T* = 40 min]” value (VTA, baseline) was 12.11 mL cm^−3. For the same molecule, the “VT, One tissue compartment model [1TCM]” value (VTA, baseline) was 8.25 mL cm^−3, the “VT, Two tissue compartment model [2TCM]” value (VTA, baseline) was 11.16 mL cm^−3 and the “VT, Two tissue compartment model [2TCM]” value (WB (whole brain), baseline) was 10.35 mL cm^−3. For the same molecule, the “VT, Logan graphical method [T* = 40 min]” value [9] was 20.75 ml/cm^3, the “VT, Two tissue compartment model [2TCM]” value [9] was 16.75 ml/cm^3 and the “VT, Logan graphical method [T* = 40 min]” value (WB, baseline) was 9.82 mL cm^−3. For the same molecule, the “VT, One tissue compartment model [1TCM]” value (WB, baseline) was 7.44 mL cm^−3, the “VT, Two tissue compartment model [2TCM]” value (WM (white matter), baseline) was 15.00 mL cm^−3 and the “VT, Logan graphical method [T* = 40 min]” value [10] was 25.98 ml/cm^3. For the same molecule, the “VT, Two tissue compartment model [2TCM]” value [10] was 21.29 ml/cm^3, the “VT, Logan graphical method [T* = 40 min]” value (WM, baseline) was 11.98 mL cm^−3 and the “VT, One tissue compartment model [1TCM]” value (WM, baseline) was 9.00 mL cm^−3.
